The target of assay [1] is T1, PDE5 (PDE5A1) (Homo sapiens, UniProt O76074).
T1 construct: made in house; host or cells: HEK293 (transient transfection; supernatant of sonicated homogenate)
The experiment in a line: Phosphodiesterase 5 inhibition assay (two-step radioactive procedure, [3H]cGMP). As to conditions: for IC50: flavonoids, mean ± SD, triplicate. It counts as biochemical.

The subject of assay [2] is rabbit corpus cavernosum tissues. On the set-up: method as in PMID 17968465. As to conditions: rabbit tissue; cited from earlier work.
The test system of assay [3] is PDE5 enzymes isolated from the mice lungs. On the set-up: method as in PMID 25920267. As to conditions: cited from earlier work.
Assay [4] addresses PDE5 enzymes isolated from the lungs and hearts of male guinea pigs. As to conditions: cited from earlier work.

As usually defined, the IC50 is the concentration at which inhibition is half-maximal.

As for `COc1c(-c2ccc(O)cc2)oc2cc(O)cc(O)c2c1=O` [Compound 6, 3-O-methylkaempferol], in assay [1], the “PDE5 IC50 level (in words)” value is “micromolar level” and the IC50 worked out at 4.41 ± 0.46 µM.
The matching figures for `O=c1c(O)c(-c2ccc(O)c(O[C@@H]3OC[C@@H](O)[C@H](O)[C@H]3O)c2)oc2cc(O)cc(O)c12` [Compound 1, quercetin 3’-O-β-xylopyranoside]: “micromolar level” and 4.09 ± 0.76 µM.
In the case of `COc1ccc(C[C@@H]2c3cc(Oc4cc(C[C@@H]5c6cc(OC)c(OC)cc6CCN5C)ccc4O)c(OC)cc3CCN2C)cc1` [Neferine], in assay [2], the “Relaxant effect on corpus cavernosum tissues” value is “relaxant effect”.
In the case of `O=c1c(O)c(-c2ccc(O)c(O)c2)oc2cc(O)cc(O)c12` [Compound 3, quercetin], in assay [1], the “PDE5 IC50 level (in words)” value is “micromolar level” and the concentration for half-maximal inhibition (IC50) stood at 0.61 ± 0.11 µM. Further, the “PDE5 inhibitory activity of 3 relative to 1, 2 and 4” value in assay [1] (times stronger than 1, 2, and 4) was 7–9 times. Moreover, the “PDE5 inhibition (in words)” value in assay [3] is “inhibit PDE5 enzymes”.
As to `COc1c(-c2ccc(O)c(O)c2)oc2cc(O)cc(O)c2c1=O` [Compound 4, 3-O-methylquercetin], in assay [1], the “PDE5 IC50 level (in words)” value is “micromolar level” and the IC50 was 5.74 ± 2.11 µM. Further, the half-maximal inhibitory concentration (IC50) in assay [4] was 86.9 µM.
As to `O=c1c(O)c(-c2ccc(O)cc2)oc2cc(O)cc(O)c12` [Compound 5, kaempferol], the “PDE5 inhibition (in words)” value in assay [3] is “inhibit PDE5 enzymes”.
As to `COc1c(-c2ccc(O)c(OC3OCC(O)C(O)C3O)c2)oc2cc(O)cc(O)c2c1=O` (stereo not drawn) [Compound 2, quercetin 3-methyl ether 3’-O-β-xylopyranoside], in assay [1], the “PDE5 IC50 level (in words)” value is on record as “micromolar level” and the IC50 was found to be 5.63 ± 0.2 µM.

Values taken from PMC10420992, “Phosphodiesterase 5 and Arginase Inhibitory Activities of the Extracts from Some Members of Nelumbonaceae and Nymphaeaceae Families” (Molecules, 2023).
